What all share (test): Test 1A glasshouse assay, post-emergence herbicidal activity
What all share (type): in vivo

The test system of one test is Lolium perenne (LOLPE). Particulars: Lolium perenne, 312 h, application rate 250 g/ha, 13 days after application, visual (100%=total damage; 0%=no damage), read-out: Post-emergence Herbicidal Activity (% Phytotoxicity) LOLPE. As for the experimental part:
(§1) Seeds of a variety of test species were sown in standard soil in pots. After cultivation for one day (pre-emergence) or after 8 days cultivation (post-emergence) under controlled conditions in a glasshouse (at 24/16° C., day/night; 14 hours light; 65% humidity), the plants were sprayed with an aqueous spray solution derived from the formulation of the technical active ingredient in acetone/water (50:50) solution containing 0.5% Tween 20 (polyoxyethelyene sorbitan monolaurate, CAS RN 9005-64-5). The test plants were then grown under controlled conditions in a glasshouse (at 24/16° C., day/night; 14 hours light; 65% humidity) and watered twice daily. 13 days after application of the test herbicide, for pre- and post-emergence, the test was evaluated visually for percentage phytotoxicity to the plant (where 100%=total damage to plant; 0%=no damage to plant).
(§2) Lolium perenne (LOLPE), Alopecurus myosuroides (ALOMY), Echinochloa crus-galli (ECHCG), and Avena fatua (AVEFA); these are all grassy monocotyledonous weeds.

Test [1] deals with Echinochloa crus-galli (ECHCG). To be noted: Echinochloa crus-galli, 312 h, application rate 250 g/ha, 13 days after application, visual (100%=total damage; 0%=no damage), read-out: Post-emergence Herbicidal Activity (% Phytotoxicity) ECHCG. How it is done:
as §1, §2

Test [2] concerns Alopecurus myosuroides (ALOMY). Particulars: Alopecurus myosuroides, 312 h, application rate 250 g/ha, 13 days after application, visual (100%=total damage; 0%=no damage), read-out: Post-emergence Herbicidal Activity (% Phytotoxicity) ALOMY. As for the experimental part:
as §1, §2

The test system of a further test is Avena fatua (AVEFA). Particulars: Avena fatua, 312 h, application rate 250 g/ha, 13 days after application, visual (100%=total damage; 0%=no damage), read-out: Post-emergence Herbicidal Activity (% Phytotoxicity) AVEFA. As for the experimental part: as §1, §2

Structures are written as SMILES.

In the case of `Cc1cc(C)c(C2C(=O)CC(CCNC(=O)c3ccsc3)C2=O)c(C)c1` (stereo not drawn) [Compound A4], the pest or weed control at 250 g/ha stood at 80% with Lolium perenne (LOLPE), 100% in test [1], 70% in test [2] and 60% in the test on Avena fatua (AVEFA).
`Cc1cc(C)c(C2C(=O)CC(CCNC(=O)c3cccs3)C2=O)c(C)c1` (stereo not drawn) [Compound A5]: the pest or weed control at 250 g/ha with Lolium perenne (LOLPE) was determined as 70%; in test [1], 60%; in test [2], 50%; with Avena fatua (AVEFA), 30%.
In the case of `Cc1cc(C)c(C2C(=O)CC(CCNC(=O)c3ccc(Cl)c(Cl)c3)C2=O)c(C)c1` (stereo not drawn) [Compound A6], the pest or weed control at 250 g/ha in the test on Lolium perenne (LOLPE) was found to be 90%; in test [1], 90%; in test [2], 30%; in the test on Avena fatua (AVEFA), 60%.
Turning to `Cc1cc(C)c(C2C(=O)CC(CCNC(=O)c3ccco3)C2=O)c(C)c1` (stereo not drawn) [Compound A7], the pest or weed control at 250 g/ha in the test with Lolium perenne (LOLPE) is 60%; in test [1], 90%; in test [2] it was 60%; with Avena fatua (AVEFA), 50%.
As to `Cc1cc(C)c(C2C(=O)CC(CCNC(=O)C3CCC3)C2=O)c(C)c1` (stereo not drawn) [Compound A8], the pest or weed control at 250 g/ha in the test with Lolium perenne (LOLPE) came to 90%; in test [1], 80%; in test [2], 60%; with Avena fatua (AVEFA), 70%.
For `Cc1cc(C)c(C2C(=O)CC(CCNC(=O)C3CCCC3)C2=O)c(C)c1` (stereo not drawn) [Compound A9], the pest or weed control at 250 g/ha in the test with Lolium perenne (LOLPE) was 80%; in test [1] it was 70%; in test [2], 60%; with Avena fatua (AVEFA), 50%.
`CCC(=O)NCCC1CC(=O)C(c2c(C)cc(C)cc2C)C1=O` (stereo not drawn) [Compound A10]: the pest or weed control at 250 g/ha in the test on Lolium perenne (LOLPE) is 70%; in test [1] it was 50%; in test [2], 60%; in the test on Avena fatua (AVEFA), 70%.
With `COc1ccccc1C(=O)NCCC1CC(=O)C(c2c(C)cc(C)cc2C)C1=O` (stereo not drawn) [Compound A11], the pest or weed control at 250 g/ha with Lolium perenne (LOLPE) was 100%; in test [1], 100%; in test [2], 70%; in the test with Avena fatua (AVEFA), 70%.
Take `Cc1cc(C)c(C2C(=O)CC(CCNC(=O)c3ccc(C(F)(F)F)cc3)C2=O)c(C)c1` (stereo not drawn) [Compound A12]: the pest or weed control at 250 g/ha in the test on Lolium perenne (LOLPE) was determined as 100%; in test [1], 100%; in test [2], 80%; in the test with Avena fatua (AVEFA), 100%.
Regarding `Cc1cc(C)c(C2C(=O)CC(CCNC(=O)c3ccc(F)c(Cl)c3)C2=O)c(C)c1` (stereo not drawn) [Compound A14], the pest or weed control at 250 g/ha with Lolium perenne (LOLPE) came out at 70%; in test [1] it was 100%; in test [2] it was 60%; with Avena fatua (AVEFA), 70%.
Turning to `Cc1cc(C)c(C2C(=O)CC(CCNC(=O)c3ccc(OC(F)(F)F)cc3)C2=O)c(C)c1` (stereo not drawn) [Compound A15], the pest or weed control at 250 g/ha with Lolium perenne (LOLPE) came out at 90%; in test [1] it was 100%; in test [2], 60%; with Avena fatua (AVEFA) it was 90%.
Take `Cc1cc(C)c(C2C(=O)CC(CCNC(=O)c3ccoc3)C2=O)c(C)c1` (stereo not drawn) [Compound A16]: the pest or weed control at 250 g/ha with Lolium perenne (LOLPE) came to 60%; in test [1], 50%; in test [2] it was 60%; in the test with Avena fatua (AVEFA), 50%.
Take `Cc1cc(C)c(C2C(=O)CC(CCNC(=O)c3ccc(F)cc3F)C2=O)c(C)c1` (stereo not drawn) [Compound A17]: the pest or weed control at 250 g/ha is 100% with Lolium perenne (LOLPE), 100% in test [1], 80% in test [2] and 90% in the test on Avena fatua (AVEFA).
With `COc1ccc(C(=O)NCCC2CC(=O)C(c3c(C)cc(C)cc3C)C2=O)cc1` (stereo not drawn) [Compound A18], the pest or weed control at 250 g/ha worked out at 90% with Lolium perenne (LOLPE), 100% in test [1], 60% in test [2] and 80% with Avena fatua (AVEFA).
The matching figures for `Cc1cc(C)c(C2C(=O)CC(CCNC(=O)c3ccccc3Cl)C2=O)c(C)c1` (stereo not drawn) [Compound A20]: 100%, 100%, 70% and 70%.
Regarding `CCC(CC1CC(=O)C(c2c(C)cc(C)cc2C)C1=O)NC(=O)c1ccc(F)cc1` (stereo not drawn) [Compound A21], the pest or weed control at 250 g/ha in the test with Lolium perenne (LOLPE) turned out to be 100%; in test [1] it was 100%; in test [2], 90%; with Avena fatua (AVEFA), 90%.
As to `Cc1cc(C)c(C2C(=O)CC(CCNC(=O)c3ccc(Cl)nc3)C2=O)c(C)c1` (stereo not drawn) [Compound A22], the pest or weed control at 250 g/ha in the test with Lolium perenne (LOLPE) was 80%; in test [1], 80%; in test [2], 70%; in the test with Avena fatua (AVEFA) it was 80%.
As for `Cc1cc(C)c(C2C(=O)CC(CCNC(=O)c3ccc(Cl)nc3Cl)C2=O)c(C)c1` (stereo not drawn) [Compound A24], the pest or weed control at 250 g/ha in the test with Lolium perenne (LOLPE) turned out to be 90%; in test [1], 80%; in test [2], 80%; in the test on Avena fatua (AVEFA) it was 80%.
Take `Cc1cc(C)c(C2C(=O)CC(CCNC(=O)c3cc(Cl)nc(Cl)c3)C2=O)c(C)c1` (stereo not drawn) [Compound A25]: the pest or weed control at 250 g/ha was 60% in the test on Lolium perenne (LOLPE), 80% in test [1], 50% in test [2] and 40% in the test on Avena fatua (AVEFA).
`Cc1cc(C)c(C2C(=O)CC(CCNC(=O)c3cccnc3Cl)C2=O)c(C)c1` (stereo not drawn) [Compound A26]: the pest or weed control at 250 g/ha (in the test on Lolium perenne (LOLPE); in test [1]; in test [2]; with Avena fatua (AVEFA)) was 80% in each case.
Take `Cc1cc(C)c(C2C(=O)CC(CCNC(=O)c3ccc4ccccc4n3)C2=O)c(C)c1` (stereo not drawn) [Compound A27]: the pest or weed control at 250 g/ha amounted to 70% in the test with Lolium perenne (LOLPE), 100% in test [1], 80% in test [2] and 90% with Avena fatua (AVEFA).
Consider `COc1cc(C(=O)NCCC2CC(=O)C(c3c(C)cc(C)cc3C)C2=O)cc(Cl)n1` (stereo not drawn) [Compound A28], for which the pest or weed control at 250 g/ha was found to be 70% with Lolium perenne (LOLPE), 80% in test [1], 100% in test [2] and 50% in the test with Avena fatua (AVEFA).
For `Cc1cc(C)c(C2C(=O)CC(CCNC(=O)c3ccc(C(F)(F)F)nc3)C2=O)c(C)c1` (stereo not drawn) [Compound A29], the pest or weed control at 250 g/ha with Lolium perenne (LOLPE) turned out to be 80%; in test [1] it was 80%; in test [2], 80%; in the test with Avena fatua (AVEFA), 90%.
Take `Cc1cc(C)c(C2C(=O)CC(CCNC(=O)C3CCOCC3)C2=O)c(C)c1` (stereo not drawn) [Compound A35]: the pest or weed control at 250 g/ha is 60% in the test with Lolium perenne (LOLPE), 40% in test [1], 80% in test [2] and 40% in the test on Avena fatua (AVEFA).
Consider `Cc1cc(C)c(C2C(=O)CC(CCNC(=O)C3CCOC3)C2=O)c(C)c1` (stereo not drawn) [Compound A36], for which the pest or weed control at 250 g/ha in the test with Lolium perenne (LOLPE) came to 80%; in test [1], 80%; in test [2], 80%; in the test on Avena fatua (AVEFA), 70%.
With `Cc1cc(C)c(C2C(=O)CC(CCNC(=O)c3cccc[n+]3[O-])C2=O)c(C)c1` (stereo not drawn) [Compound A37], the pest or weed control at 250 g/ha in the test on Lolium perenne (LOLPE) is 90%; in test [1], 80%; in test [2], 100%; with Avena fatua (AVEFA), 80%.
As for `Cc1cc(-c2ccc(Cl)cn2)cc(C)c1C1C(=O)CC(CCNC(=O)c2ccccn2)C1=O` (stereo not drawn) [Compound A38], the pest or weed control at 250 g/ha (in the test with Lolium perenne (LOLPE); in test [1]; in test [2]; in the test with Avena fatua (AVEFA)) was 100% throughout.
In the case of `Cc1cc(C)c(C2C(=O)CC(CCNC(=O)c3nc(Cl)ccc3Cl)C2=O)c(C)c1` (stereo not drawn) [Compound A39], the pest or weed control at 250 g/ha (in the test on Lolium perenne (LOLPE); in test [1]; in test [2]; in the test on Avena fatua (AVEFA)) was 100% each time.
`Cc1cc(C)c(C2C(=O)CC(CCNC(=O)c3nc(Cl)ccc3Br)C2=O)c(C)c1` (stereo not drawn) [Compound A40]: the pest or weed control at 250 g/ha (in the test on Lolium perenne (LOLPE); in test [1]; in test [2]; with Avena fatua (AVEFA)) was 100% in each case.
For `Cc1cc(C)c(C2C(=O)CC(CCNC(=O)c3ncccc3N)C2=O)c(C)c1` (stereo not drawn) [Compound A41], the pest or weed control at 250 g/ha was 70% in the test on Lolium perenne (LOLPE), 60% in test [1], 70% in test [2] and 70% in the test on Avena fatua (AVEFA).

For the origin of these results see patent publication US9808003B2, “Herbicidally active 2-(substituted-phenyl)-cyclopentane-1,3-dione compounds and derivatives thereof” (Syngenta Limited, priority 2013, dated 2017).
